# In patent publication US20040197341A1, “Therapeutic process for p. aeruginosa infections using macrolide antibiotics” (priority 2004, published 2004):
# Legend:
# [1] = system: lasR, rhlR, lasI and rhlI genes; experiment: lacZ reporter fusions of lasR, rhlR, lasI, rhlI, beta-Gal activity; format: cell-based, P. aeruginosa; details: 2 μg/ml azithromycin, 10 h
# Procedure: Cultures of P. aeruginosa strain PAO1, harbouring the fusion gene of lasR′ with lacZ reporter (pPCS10011; Pesci, E. C., Pearson, J. P., Seed, P. C., Iglewski, B. H., J. Bacteriol. 1997, 179, 3127-3132), or the fusion gene of rhlR′ with lacZ (pPCS1002; ibid.), or the fusion gene of lasI′ with lacZ (pPCS223; Van Delden, C., Pesci, E. C., Pearson, J. P., Iglewski, B. H., Infect. Immun. 1998, 66, 4499-4502), or the fusion gene of rhlI′ with lacZ (pLPRI; ibid.) were grown for 10 h in broth medium either in the absence or presence of 2 μg/ml azithromycin and the β-Gal activity was then determined. The results for lasR and rhlR are shown in FIG. 2a) and for lasI and rhlI in FIG. 2b) (plotted bars are the mean ±SD of 6 individual experiments each).
# 3-oxo-C12-HSL = experiment: Production of 3-oxo-C12-HSL autoinducer, specific bioassay of ethyl acetate extracts of supernatants; format: cell-based, P. aeruginosa; details: 2 μg/ml, LB medium, 12 hours, strain PAO1
# Procedure: (§1) P. aeruginosa strain PAO1 was grown in LB medium for 12 hours either in the absence or presence of 2 μg/ml of azithromycin. The formed 3-oxo-C12—HSL and C4—HSL autoinducers were extracted from the supernatants of both cultures with ethyl acetate and their respective concentrations were measured using specific bioassays (Pearson, J. P., Pesci, E. C., Iglewski, B. H., J. Bacteriol. 1997, 179, 3127-3132; Seed, P. C, Passador, L., Iglewski, B. H., J. Bacteriol. 1995, 177, 654-659). The results are plotted in FIG. 3 a). In the presence of the macrolide the concentrations of 3-oxo-C12-HSL and C4-HSL were reduced by 94 and 72%, respectively.
# [2] = system: P. aeruginosa strain PAO1; experiment: Qualitative rhamnolipid plate assay on M9-based agar with azithromycin gradient; format: cell-based; details: gradient from 0 μg/ml to 20 μg/ml in agar
# Procedure: P. aeruginosa strain PAO1 was grown on M9-based agar plates (Siegmund, I., Wagner, F., Biotechnol. Tech. 1991, 5, 265-268) into which a gradient of azithromycin from 0 μg/ml to 20 μg/ml was incorporated. The qualitative Rhamnolipid® plate assay was used.
# rhlAB operon = experiment: rhlA'-lacZ reporter (pECP60) expression of the rhlAB operon, beta-Gal activity, with growth curves; format: cell-based, P. aeruginosa; details: 2 μg/ml, LB medium, 16 hours
# Procedure: P. aeruginosa strain PAO1, harbouring the fusion gene pECP60 of rhlA′ with the lacZ reporter (Pesci, E. C., Pearson, J. P., Seed, P. C., Iglewski, B. H., J. Bacteriol. 1997, 179, 3127-3132), was grown for 16 hours in LB medium either in the absence or presence of 2 μg/ml azithromycin and the activity of β-galactosidase (β-Gal) (Miller, J. H., “Experiments in Molecular Genetics”, p. 352-355. Cold Spring Harbor Laboratory, Cold Spring Harbor, N.Y.) was measured in both cultures in intervals of 4 hours. The results of 6 experiments (mean±SD) for each culture were plotted against sampling time (FIG. 1c).
# C4-HSL = experiment: Production of C4-HSL autoinducer, specific bioassay of ethyl acetate extracts of supernatants; format: cell-based, P. aeruginosa; details: 2 μg/ml, LB medium, 12 hours, strain PAO1
# Procedure: as §1
# [3] = system: P. aeruginosa strain PAO1; experiment: Cell growth of P. aeruginosa PAO1 in LB medium (turbidity at 660 nm) and SDS-PAGE of total protein extracts; format: cell-based
# Procedure: P. aeruginosa strain PAO1 was grown for a total of 10 hours on Luria-Bertani (LB) medium containing 2, 3, 4 and 5 μg/ml of azithromycin, respectively. The cell growth in the media was measured by optical absorbance measurements (turbidity) at 660 nm in intervals of 2 h.
# [4] = in vivo; cited from earlier work
# [5] = system: P. aeruginosa strain PAO1; experiment: Growth curves (optical density at 660 nm) in the elastase production experiment; format: cell-based; details: 2 μg/ml, broth medium, 16 hours
# Procedure: P. aeruginosa strain PAO1 was grown over a total of 16 hours in broth medium either without azithromycin or with 2 μg/ml azithromycin. Samples of the supernatants of both cultures were taken in intervals of 4 hours and the activity of elastase in the samples was determined using elastin Congo red assays (Pearson, J. P., Pesci, E. C., Iglewski, B. H., J. Bacteriol. 1997, 179, 5756-5767). The measured elastase activity was plotted against the sampling times, giving FIG. 1b).
# P. aeruginosa strains = details: clinical trials; cited from earlier work
# C4-HSL autoinducer = details: 50 μg of erythromycin/ml; cited from earlier work
# [6] = 2 μg of azithromycin/ml, LB medium, strain PAO1
smiles,measurement,setting,value
CC[C@H]1OC(=O)[C@H](C)[C@@H](O[C@H]2C[C@@](C)(OC)[C@@H](O)[C@H](C)O2)[C@H](C)[C@@H](O[C@@H]2O[C@H](C)C[C@H](N(C)C)[C@H]2O)[C@](C)(O)C[C@@H](C)CN(C)[C@H](C)[C@@H](O)[C@]1(C)O [azithromycin],restoration of lasI expression by co-addition of exogenous autoinducers,[1]; 10 μM exogenous autoinducers,could not restore
same,effect on lasR and rhlR expression on co-adding exogenous 3-oxo-C12-HSL and C4-HSL,[1]; autoinducers 10 μM each,almost completely compensated
same,reduction of 3-oxo-C12-HSL concentration,3-oxo-C12-HSL,94%
same,growth on rhamnolipid plates,[2],without a parallel drop in growth
same,production of rhamnolipids,[2],progressively decreased
same,influence on the growth (optical density at 660 nm),rhlAB operon,no significant influence
same,reduction of C4-HSL concentration,C4-HSL,72%
same,effect on exponential growth,[3]; [6],slightly affected
same,effect on the stationary growth phase,[3]; [6],no effect
same,inhibition of PAO1,[3]; in vitro concentration 2 μg/ml,does not inhibit PAO1
same,distribution between body tissues and serum/plasma,[4],tends to accumulate in body tissues
same,influence on the growth (optical density at 660 nm),[5],no significant influence
CC[C@H]1OC(=O)[C@H](C)[C@@H](O[C@H]2C[C@@](C)(OC)[C@@H](O)[C@H](C)O2)[C@H](C)[C@@H](O[C@@H]2O[C@H](C)C[C@H](N(C)C)[C@H]2O)[C@](C)(OC)C[C@@H](C)C(=O)[C@H](C)[C@@H](O)[C@]1(C)O [clarithromycin],effect on the viability of the microorganism,P. aeruginosa strains,no effect
CC[C@H]1OC(=O)[C@H](C)[C@@H](O[C@H]2C[C@@](C)(OC)[C@@H](O)[C@H](C)O2)[C@H](C)[C@@H](O[C@@H]2O[C@H](C)C[C@H](N(C)C)[C@H]2O)[C@](C)(O)C[C@@H](C)C(=O)[C@H](C)[C@@H](O)[C@]1(C)O [erythromycin],autoinducer production,C4-HSL autoinducer,reduction
